Test results from patent publication US20080219922A1, “Alzheimer's Disease Imaging Agents” (priority 2005, published 2008).

What was measured:
[1] = Partition coefficient determination (1-octanol/phosphate buffer pH 7.4); type: physicochemical; conditions: 1-octanol / 0.02 M sodium phosphate buffer pH 7.4
Experimental: Measurement of distribution coefficient of [^18F]tracer was performed based on the method described by Wilson et al. [Labelled Compd. Radiopharm., 42:1277-1288 (1999)] using 0.02 M sodium phosphate buffer at pH 7.4 and 1-octanol. Basically, the test tubes containing ˜20 μCi of the radiotracer and 2 mL each of 1-octanol and phosphate buffer were vortexed for 10 min at room temperature and then centrifuged for 5 min. Samples (0.5 mL) from 1-octanol and buffer layers were counted in a Packard Cobra II auto-gamma counter (Perkin-Elmer, Downers Grove, Ill.) and decay corrected. The measurement was repeated three times. The log P7.4 value was calculated as follows: log P7.4 log [counts in octanol phase/counts in buffer phase].

[2] = molecular target: T1, amyloid plaques in sections from postmortem AD brains (Homo sapiens, UniProt P05067); test: In vitro film autoradiography of postmortem AD brain sections; type: binding
T1 construct: abundant amyloid plaques or deposits composed of amyloid-β(Aβ) peptides; from tissue; host or cells: postmortem brain tissue sections of frontal lobe from an AD patient
Text: FZ 202-1 in postmortem brain tissue sections of frontal lobe from an AD patient. A: AD tissue+[^18F] FZ 202-1. B: [^18F] […] C: […] [^18F]

[3] = rhesus monkey, in vivo, iv
Experimental: In order to assess brain uptake and clearance, FZ 202-1 and FZ 202-2 were radiolabeled with fluorine-18. The kinetics of fluorine-18 labeled FZ 202-1 and FZ 202-2 in brain were determined by microPET in rhesus monkeys.
PET study was performed in a male rhesus monkey weighing 6-10 kg using a Concorde MicroPET P4 imaging system. The animal was initially anesthetized with an intramuscular injection of Telazol (3 mg/kg), intubated, and then maintained on a 1% isoflurane/5% oxygen gas mixture throughout the imaging session. The monkey was placed in the PET scanner and the head was immobilized. Blood pressure, heart and respiratory rates, and expired CO2 and oxygen saturation levels were monitored continuously during the PET study. A transmission scan was obtained with a germanium-68 source prior to the PET study for attenuation correction of the emission data. Brain emission scans were performed following the intravenous administration of [^18F]tracer (5 mCi). Serial dynamic transaxial images were acquired for a total of 120 min and then binned for analysis. Emission data acquired were subject to iterative reconstruction (OSEM, two iterations, 40 subsets) with no pre- or postfiltering to provide images with an isotropic resolution of 3 mm fwhm. […]

T1 sequence (P05067 672-713 limits assumed): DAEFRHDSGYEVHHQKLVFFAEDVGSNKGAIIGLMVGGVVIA

Log P7.4 [1]	specific binding after pretreatment with nonradioactive PIB and IMPY ([2]; AD specimen, FIG. 3: +1 mM PIB, +10 mM IMPY)	radioactivity ratios of peak-to-115 min in cerebellum, frontal cortex and subcortical white matter ([3]; male)	bone uptake of radioactivity in the skull [3]	SMILES	specific binding to amyloid plaques (plaque labeling) ([2]; postmortem AD brain sections, frontal lobe, film autoradiography)
3.58				CN(C)c1ccc(-c2cn3cc([125I])ccc3n2)cc1 [IMPY, reference compound]	
2.83				Cc1cc(F)nn2cc(-c3ccc(N(C)C)cc3)nc12 [FZ 202-2]	
2.69				Cc1cc2nc(-c3ccc(N(C)C)cc3)cn2nc1F [FZ 202-1]	
	eliminated	2.5-4.9	No bone uptake	Cc1cc2nc(-c3ccc(N(C)C)cc3)cn2nc1F [[^18F]-FZ 202-1]	clearly observed in cortical gray matter, but not in the white matter
